Legend:
[1] = target: T1, rat liver arginase (ARG-1) (Rattus norvegicus, UniProt P07824); test: Inhibition of rat liver arginase (ARG-1); assay type: biochemical; settings: for Inhibition of ARG-1: inhibitors at 10 µM or 100 µM; for inhibition at 1000 µM: inhibitors at 1000 µM
T1 construct: Rat liver arginase (ARG-1) was prepared by lysing 5 g of liver cells; from tissue; host or cells: rat liver
T1 sequence (P07824 1-323): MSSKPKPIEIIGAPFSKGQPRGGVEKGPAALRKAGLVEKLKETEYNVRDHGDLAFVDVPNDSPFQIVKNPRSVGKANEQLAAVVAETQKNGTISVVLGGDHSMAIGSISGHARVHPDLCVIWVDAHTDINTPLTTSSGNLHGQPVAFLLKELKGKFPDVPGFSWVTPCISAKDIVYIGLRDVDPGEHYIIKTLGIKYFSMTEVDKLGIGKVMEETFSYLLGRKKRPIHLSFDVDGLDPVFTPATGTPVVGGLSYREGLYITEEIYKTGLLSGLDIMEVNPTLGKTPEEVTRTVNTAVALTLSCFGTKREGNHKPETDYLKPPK

[2] = target: T2, recombinant arginase from Leishmania amazonensis (ARG-L) (Leishmania amazonensis, UniProt O96394); test: biochemical
[3] = tested on: L. (L.) donovani amastigotes; parameters: method as in PMID 16569852; settings: cited from earlier work
[4] = target: T2, recombinant arginase from Leishmania amazonensis (ARG-L); test: ARG-L enzyme kinetics: Ki, Ki' and mechanism of inhibition (Dixon and Cornish-Bowden plots); assay type: biochemical; settings: for Ki': Cornish-Bowden plot, dissociation constant of enzyme-inhibitor-substrate complex; for Ki' / Ki: mean ± SEM; for Mode of inhibition: Dixon and Cornish-Bowden plots; for Ki: Dixon plot, dissociation constant of enzyme-inhibitor complex
Protocol: All reactions were performed in CHES buffer, 50 mM, pH 9.5, containing various concentrations of the substrate L-[…].5, 25, 50 and 100 mM) at pH 9.5. Inhibitors were used at three different concentrations similar to the IC50. The different substrate and inhibitor concentrations were obtained by serial dilution. A mixture, M1, containing L-arginine (pH 9.5) at double the desired concentration and a second mixture, M2, containing the enzyme (2000 units) diluted in 125 mM CHES buffer (pH 9.5) were prepared. The reaction mixture was obtained by homogenizing 50 μL of M1, 10 μL of inhibitor and adding 40 μL of M2. The addition of M2 was synchronized every 15 seconds, followed by immediate incubation in a water bath for 15 minutes at 37°C. The urea produced was analyzed as described above. […] Each constant was determined by calculating X values at the intersection points between two lines obtained by linear regression. […] Ki and Ki' is a positive value of the calculated X (Ki = -X). For three different values of S, three lines were drawn for 1/v against i (Dixon plot) and three lines for S/v against i (Cornish-Bowden plot). In the Dixon plot, the lines intersect at a point where i = -Ki and 1/v = [1- (Ki/Ki')]/Vmax; in the Cornish-Bowden plot, they intersect at a point where i = -Ki' and S/v = KM[1- (Ki'/Ki)]/Vmax. To make wizard Ki and Ki' calculations, linear data fitting was performed using Microsoft Office Excel v.2013. The linear equations were obtained by linear regression R^2>0.85. Linear regression retrieved the linear equation y(n) = […]), which calculates the reciprocal of the ratio of reaction 1/v (y(n)) as a function of variable inhibitor concentration (x(n)). The term b(n) is the reciprocal of the maximum ratio of reaction (1/Vmax) obtained at a fixed S concentration and variable i concentration. The Dixon and Cornish-Bowden plots were constructed using a mean of each point obtained from three independent experiments performed in duplicate. Three interception points were obtained by the combination of two linear equations for each time point. Then, Ki and Ki' were calculated using equation (7) and were expressed as mean values ± SEM (standard error of the mean).

[5] = tested on: L. (L.) amazonensis; parameters: method as in PMID 22735546; settings: cited from earlier work

Row | Compound | Inhibition of ARG-1 [1] | inhibition at 1000 µM [1] [%] | IC50 [2] [µM] | Leishmanicidal activity / effect on growth of the parasite [3] | Ki' [4] [µM] | Mode of inhibition [4] | Ki [4] [µM] | Effect on parasite mitochondria [5] | Mode of inhibition ([4]; listed as gallic acid)
1 | O=C(OC1Cc2c(O)cc(O)cc2OC1c1cc(O)c(O)c(O)c1)c1cc(O)c(O)c(O)c1 (single isomer, unassigned; (-)) [EGCG, (−)-Epigallocatechin-3-gallate] | did not significantly inhibit | 29 | 3.8 ± 0.1 | shows leishmanicidal activity | 12.5 ± 0.4 | mixed inhibitor | 4 ± 0.5 | damages mitochondria, contributing to the death of the parasite | –
2 | Oc1cc(O)c2c(c1)O[C@H](c1ccc(O)c(O)c1)[C@@H](O)C2 [(+)-catechin] | did not significantly inhibit | 26 | – | little effect on the growth of the parasite | – | – | – | – | –
3 | Oc1cc(O)c2c(c1)O[C@H](c1ccc(O)c(O)c1)[C@H](O)C2 [(−)-epicatechin] | did not significantly inhibit | 22 | – | little effect on the growth of the parasite | – | – | – | – | –
4 | O=C(O)c1cc(O)c(O)c(O)c1 [Gallic acid] | did not significantly inhibit | 20 | 2.2 ± 0.2 | – | 7.2 ± 1.4 | Noncompetitive | 7.2 ± 1.4 | – | noncompetitive inhibitor

— publication PMC3832641, “Inhibition of Leishmania (Leishmania) amazonensis and Rat Arginases by Green Tea EGCG, (+)-Catechin and (−)-Epicatechin: A Comparative Structural Analysis of Enzyme-Inhibitor Interactions” (PLoS ONE, 2013)
